# Data published in paper PMC2882332, “Species Used for Drug Testing Reveal Different Inhibition Susceptibility for 17beta-Hydroxysteroid Dehydrogenase Type 1” (PLoS ONE, 2010).
# Entries after “also recorded” stand apart in the source; their conditions may differ.
# Experiments:
# human 17β-HSD 1 = target: T1, human 17β-HSD 1 (Homo sapiens, UniProt P14061); assay: In vitro enzymatic activity, recombinant human 17β-HSD 1 (estrone reduction); type: biochemical; conditions: for specificity for human 17β-HSD 1 over human 17β-HSD 2, 4, 5 and 7 (in words) / inhibition of the human 17β-HSD 1 reductive activity (in words): 2 µM; for specificity for human 17β-HSD 1 over human 17β-HSD 2, 4, 5 and 7 (in words): Figure 2, Table 3; for inhibition at 2 µM: human 17β-HSD 1, 2 µM compound, 15 nM 3H-estrone, NADPH, pH 6.6, read-out: Observed % inhibition; for inhibition of the human 17β-HSD 1 reductive activity (in words): Figure 2; for IC50: Human 17β-HSD 1, 0.005 µM to 5 µM inhibitor
# T1 construct: Full length cDNAs of several 17β-HSDs type 1 originating from different species were cloned; made in house; host or cells: E.coli BL21 DE3 Codon Plus RP
# T1 sequence (P14061 1-328): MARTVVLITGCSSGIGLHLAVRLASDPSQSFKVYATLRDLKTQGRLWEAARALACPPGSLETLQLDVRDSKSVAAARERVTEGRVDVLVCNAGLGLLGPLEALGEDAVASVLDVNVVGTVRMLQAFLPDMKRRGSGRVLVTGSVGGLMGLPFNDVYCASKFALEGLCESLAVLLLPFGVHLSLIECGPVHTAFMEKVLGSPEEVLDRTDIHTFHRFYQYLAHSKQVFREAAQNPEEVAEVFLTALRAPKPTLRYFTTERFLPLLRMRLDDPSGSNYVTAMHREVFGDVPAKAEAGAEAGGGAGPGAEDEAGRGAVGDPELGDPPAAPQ
# Source text: (§1) Full length cDNAs of several 17β-HSDs type 1 originating from different species were cloned either into the pQE30 vector (human 17β-HSD 1, coding for acc. no. NP_000404) for expression as His-Tag protein or into a modified pGex-2T vector [63] (mouse 17β-HSD 1, acc. no. NP_034605; rat 17β-HSD 1, acc. no. NP_036983; marmoset 17β-HSD 1, acc. no. AAG01115; porcine 17β-HSD 1, acc. no. NP_001121944) for expression as GST-fusion proteins. The marmoset 17β-HSD 1 enzyme sequence was updated by the missing N-terminal part (AF272013) and the new porcine sequence was submitted to GenBank (NP_001121944). Human 17β-HSDs 2, 4, 5 (AKR1C3, the latter kindly provided by Dr. T. Penning) and 7 were all cloned into the modified pGEX-2T vector. For 17β-HSD 4 only the SDR-domain converting the steroids was subcloned. Plasmids were transformed into E.coli BL21 DE3 Codon Plus RP (Stratagene) and enzyme expression was induced by 0.5 mM IPTG. After 4h incubation at 37°C with continuous shaking bacteria were pelleted by centrifugation at 10.000×g. Pellets were stored until use at −20°C.
# (§2) The bacteria containing recombinant enzymes were resuspended in PBS and enzymatic assays were performed in 100 mM sodium phosphate buffer at pH 6.6 for the reductive reaction and at pH 7.7 for the oxidative reaction. […] All substrates were purchased from NEN/Perkin Elmer. The cofactors NADPH (Sigma; for reductive reactions) and NAD^+ (Serva, for oxidative reactions) were used at final concentrations of 0.5 mg/ml. […] The incubation at 37°C was stopped with 0.21 M ascorbic acid in methanol∶acetic acid 99∶1 (v∶v) after the time needed to convert approximately 30% of the substrate in a control assay with 1% DMSO, without inhibitor candidates. […] The solvent used was acetonitrile∶water (43∶57, v∶v) at a flow rate of 1 ml/min. Radioactivity was detected by online-scintillation counting (Berthold LB506D) after mixing with ReadyFlowIII (Beckman). Conversion was calculated from integration of substrate and product peaks. […] All assays were run in duplicates of two independent experiments and mean values are reported. The IC50 values were determined by the One Ligand Binding model of SigmaPlot kinetics module.
# human 17β-HSD 7 = target: T2, human 17β-HSD 7 (Homo sapiens, UniProt P56937); assay: In vitro enzymatic activity, recombinant human 17β-HSD 7 (estrone reduction); type: biochemical; conditions: 2 µM compound, 15 nM 3H-estrone, NADPH, pH 6.6, read-out: Observed % inhibition
# T2 construct: made in house; host or cells: E.coli BL21 DE3 Codon Plus RP
# T2 sequence (P56937 1-341): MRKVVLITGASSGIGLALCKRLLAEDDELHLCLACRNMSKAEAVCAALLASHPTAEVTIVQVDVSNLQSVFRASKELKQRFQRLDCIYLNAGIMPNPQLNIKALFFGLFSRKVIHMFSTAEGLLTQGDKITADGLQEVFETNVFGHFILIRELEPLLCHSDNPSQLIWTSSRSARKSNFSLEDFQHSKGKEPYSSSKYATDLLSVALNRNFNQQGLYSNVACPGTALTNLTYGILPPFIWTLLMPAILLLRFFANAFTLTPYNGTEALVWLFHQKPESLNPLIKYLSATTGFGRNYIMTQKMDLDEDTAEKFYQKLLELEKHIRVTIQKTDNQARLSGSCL
# Source text: as §1, §2
# human 17β-HSD 5 (AKR1C3) = target: T3, human 17β-HSD 5 (AKR1C3) (Homo sapiens, UniProt P42330); assay: In vitro enzymatic activity, recombinant human 17β-HSD 5 (androstenedione reduction); type: biochemical; conditions: 2 µM compound, 21 nM 3H-androstenedione, NADPH, pH 6.6
# T3 construct: made in house; host or cells: E.coli BL21 DE3 Codon Plus RP
# T3 sequence (P42330 1-323): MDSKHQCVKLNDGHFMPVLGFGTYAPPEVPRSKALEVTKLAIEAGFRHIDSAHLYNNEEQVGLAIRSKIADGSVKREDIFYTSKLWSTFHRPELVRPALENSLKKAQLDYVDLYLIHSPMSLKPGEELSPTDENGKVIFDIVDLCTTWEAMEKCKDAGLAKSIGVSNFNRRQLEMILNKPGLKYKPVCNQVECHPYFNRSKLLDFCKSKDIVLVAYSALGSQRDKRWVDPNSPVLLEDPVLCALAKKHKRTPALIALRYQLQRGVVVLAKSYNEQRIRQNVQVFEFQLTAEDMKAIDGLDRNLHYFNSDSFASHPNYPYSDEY
# Source text: as §1, §2
# [1] = test system: 17β-HSD 1 orthologs of five species; assay: In vitro enzymatic activity, 17β-HSD 1 orthologs of five species taken together; type: biochemical, human, marmoset, mouse, pig, rat; conditions: average over the 17β-HSD 1 orthologs of the species; 2 µM compound
# human 17β-HSD 4 = target: T4, human 17β-HSD 4 (Homo sapiens, UniProt P51659); assay: In vitro enzymatic activity, recombinant human 17β-HSD 4 SDR-domain (estradiol oxidation); type: biochemical; conditions: 2 µM compound, 21 nM 3H-estradiol, NAD+, pH 7.7
# T4 construct: For 17β-HSD 4 only the SDR-domain converting the steroids was subcloned; made in house; host or cells: E.coli BL21 DE3 Codon Plus RP
# T4 sequence (P51659 1-305 limits assumed): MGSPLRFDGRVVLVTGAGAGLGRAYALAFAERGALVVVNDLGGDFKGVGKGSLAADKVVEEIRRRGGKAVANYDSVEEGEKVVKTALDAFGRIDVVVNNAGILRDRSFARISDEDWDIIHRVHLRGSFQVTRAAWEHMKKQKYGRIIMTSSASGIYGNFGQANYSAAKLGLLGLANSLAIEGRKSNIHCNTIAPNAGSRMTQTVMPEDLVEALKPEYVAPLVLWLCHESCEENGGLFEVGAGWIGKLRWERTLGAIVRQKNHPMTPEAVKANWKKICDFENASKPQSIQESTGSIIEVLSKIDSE
# Source text: as §1, §2
SMILES,"specificity for human 17β-HSD 1 over human 17β-HSD 2, 4, 5 and 7 (in words) (human 17β-HSD 1)",inhibition at 2 µM (human 17β-HSD 1),inhibition at 2 µM (human 17β-HSD 7),Observed % inhibition (human 17β-HSD 5 (AKR1C3)),"Observed % inhibition, average [1]",Observed % inhibition (human 17β-HSD 4),inhibition of the human 17β-HSD 1 reductive activity (in words) (human 17β-HSD 1),IC50 (human 17β-HSD 1)
C[C@]12CC[C@@H]3c4ccc(O)cc4CC[C@H]3[C@@H]1[C@@H](CNC(=O)c1ccc(F)cc1)CC2=O [Compound 1],most specific inhibitors,63.6%,-3.6%,21.6%,42.1%,7.2%,–,–
C[C@]12CC[C@@H]3c4ccc(O)cc4CC[C@H]3[C@@H]1[C@@H](CCCC(=O)N1CCOCC1)CC2=O [Compound 2],very low inhibition of the other human 17β-HSDs; also recorded: most specific inhibitors,94.7%,-7.1%,33.9%,52.2%,0.1%,high inhibition,87.4 nM
Cc1cnc(NC(=O)CC[C@@H]2CC(=O)[C@@]3(C)CC[C@@H]4c5ccc(O)cc5CC[C@H]4[C@H]23)s1 [Compound 3],very low inhibition of the other human 17β-HSDs; also recorded: most specific inhibitors,97.9%,-9%,29.3%,66.7%,2.1%,high inhibition,1.3 nM
COc1ccc(-c2cn(CCC[C@H]3CC(=O)[C@@]4(C)CC[C@@H]5c6ccc(O)cc6CC[C@H]5[C@H]34)nn2)cc1 [Compound 4],–,95.8%,-5.8%,93.5%,57.0%,5.5%,–,–
"C[C@]12CC[C@@H]3c4ccc(O)cc4CC[C@H]3[C@@H]1C[C@H](CC(=O)NCc1cccnc1)C2=O [Compound 5, reference compound]",–,100%,0%,50.6%,48.4%,5.6%,–,–
